Molecular target: T1, human α7 nAChR (Homo sapiens, UniProt P36544)
T1 construct: expressed in transfected cells; host or cells: GH4C1 cells derived from rat pituitary (ATCC CCL-82.2)
Assay: Evaluation of PAM activity with human α7 nACh receptor stably expressing cells (aequorin luminescence, FDSS7000)
Assay type: cell-based
Conditions: for α7PAM (%) @ 10 μmol/L / activity at 10 µM: test compound 10 μmol/L, ACh added at EC20, ratio of RLU (Max-Min) of test wells to control wells; for activity at 10 µM: read-out: α7PAM (%) @ 10 μmol/L
How it was run: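 PAM activity defined as RLU (Max-Min) of compound wells over control wells, from 465 nm aequorin luminescence tracked 138 s after ACh challenge. Host: GH4C1 (rat pituitary) stably co-expressing human α7 nAChR and aequorin, pre-loaded 4 h with 4 μmol/L luminescent substrate.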

T1 sequence (P36544 23-502): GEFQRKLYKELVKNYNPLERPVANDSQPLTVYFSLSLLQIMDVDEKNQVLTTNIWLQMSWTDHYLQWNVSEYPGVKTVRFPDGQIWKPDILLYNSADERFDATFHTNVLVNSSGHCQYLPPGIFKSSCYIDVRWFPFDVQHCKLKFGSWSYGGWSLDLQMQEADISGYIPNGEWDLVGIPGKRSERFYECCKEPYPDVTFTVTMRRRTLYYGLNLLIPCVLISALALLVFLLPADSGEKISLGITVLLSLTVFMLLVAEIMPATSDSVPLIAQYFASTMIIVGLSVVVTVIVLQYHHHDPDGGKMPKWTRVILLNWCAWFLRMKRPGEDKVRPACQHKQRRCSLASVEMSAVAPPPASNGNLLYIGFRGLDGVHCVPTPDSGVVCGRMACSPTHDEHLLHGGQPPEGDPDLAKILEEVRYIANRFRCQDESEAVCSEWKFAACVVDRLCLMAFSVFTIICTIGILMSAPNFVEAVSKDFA

| SMILES | α7PAM (%) @ 10 μmol/L [%] | also measured |
| --- | --- | --- |
| Cc1ccc2c(c1)c(OC(C)C)nn2C1CCN(C(=O)NC2CCOCC2)CC1 [Example 208] | 328 |  |
| CCc1ccc2c(c1)c(OC(F)F)nn2C1CCN(C(=O)NC2CCOCC2)CC1 [Example 209] | 266 |  |
| COCc1c(C)ccc2c1cnn2C1CCN(C(=O)NC2CCC(F)(F)CC2)CC1 [Example 213] | 800 |  |
| COCc1c(C)ccc2c1cnn2C1CCN(C(=O)N[C@H]2CC[C@H](OC)CC2)CC1 [Example 214] | 207 |  |
| COCc1c(C2CC2)ccc2c1cnn2C1CCN(C(=O)NC2CCC(F)(F)CC2)CC1 [Example 215] | 851 |  |
| COCc1c(C2CC2)ccc2c1cnn2C1CCN(C(=O)N[C@H]2CC[C@H](OC)CC2)CC1 [Example 216] | 271 |  |
| CO[C@H]1CC[C@H](NC(=O)N2CCC(n3ncc4cc(OC(F)(F)F)ccc43)CC2)CC1 [Example 219, N-(trans-4-methoxycyclohexyl)-4-[5-(trifluoromethoxy)-1H-indazol-1-yl]piperidine-1-carboxamide] |  | activity at 10 µM: 238% |
| CO[C@H]1CC[C@H](NC(=O)N2CCC(n3ncc4c(F)c(C)ccc43)CC2)CC1 [Example 223] | 257 |  |
| CO[C@H]1CC[C@H](NC(=O)N2CCC(n3ncc4c(C)c(C)ccc43)CC2)CC1 [Example 225] | 480 |  |
| [2H]C([2H])([2H])O[C@H]1CC[C@H](NC(=O)N2CCC(n3ncc4cc(OC(F)(F)F)ccc43)CC2)CC1 [Example 226, N-{trans-4-[(^2H3)methoxy]cyclohexyl}-4-[5-(trifluoromethoxy)-1H-indazol-1-yl]piperidine-1-carboxamide] | 594 |  |
| CO[C@H]1CC[C@H](NC(=O)N2CCC(n3ncc4cc(OC5CC5)ccc43)CC2)CC1 [Example 230, 4-[5-(cyclopropoxy)-1H-indazol-1-yl]-N-(trans-4-methoxycyclohexyl)piperidine-1-carboxamide] |  | activity at 10 µM: 621% |
| COC(C)c1cccc2c1cnn2C1CCN(C(=O)NC2CCC(F)(F)CC2)CC1 (stereo not drawn) [Example 231] | 647 |  |
| COC(C)c1c(C)ccc2c1cnn2C1CCN(C(=O)NC2CCC(F)(F)CC2)CC1 (stereo not drawn) [Example 232] | 860 |  |

Second part, led by results:

| α7PAM (%) @ 10 μmol/L [%] | SMILES | also measured |
| --- | --- | --- |
| 193 | O=C(Nc1ccc(Cl)nn1)N1CCC(n2ncc3cc(C4CC4)ccc32)CC1 [Example 204] |  |
| 1187 | O=C(NC1CCC(OC(F)F)CC1)N1CCC(n2ncc3cc(C4CC4)ccc32)CC1 (stereo not drawn) [Example 205] |  |
| 196 | COc1ccc(C2(NC(=O)N3CCC(n4ncc5cc(C6CC6)ccc54)CC3)CC2)cc1 [Example 206] |  |
| 335 | CCOCc1ccc2c(cnn2C2CCN(C(=O)NC3CCC(F)(F)CC3)CC2)c1 [Example 207] |  |
| 209 | CC1(C)CC(NC(=O)N2CCC(n3ncc4cc(C5CC5)ccc43)CC2)CCO1 (stereo not drawn) [Example 210] |  |
| 517 | O=C(NC1CC(F)(F)C1)N1CCC(n2ncc3cc(C4CC4)ccc32)CC1 [Example 217] |  |
| 648 | Cc1ccc2c(cnn2C2CCN(C(=O)NC3CC(F)(F)C3)CC2)c1 [Example 218] |  |
| 2160 | COCC1CCC(NC(=O)N2CCC(n3ncc4cc(C)ccc43)CC2)CC1 (stereo not drawn) [Example 220] | PAM activity for α7 nAChR (result in words, ratio of RLU (Max-Min) to control wells, ACh EC20): stronger PAM activity than others |
| 1942 | COCC1CCC(NC(=O)N2CCC(n3ncc4cc(C5CC5)ccc43)CC2)CC1 (stereo not drawn) [Example 221] |  |
| 638 | Cc1ccc2c(cnn2C2CCN(C(=O)NC3CCC(F)(F)CC3)CC2)c1F [Example 222] |  |
| 286 | O=C(NC1CCC(F)(F)CC1)N1CCC(n2ncc3cc(N4CCCC4)ccc32)CC1 [Example 224] |  |
| 276 | COCC1CCC(NC(=O)N2CCC(n3ncc4cc(OC(F)(F)F)ccc43)CC2)CC1 (stereo not drawn) [Example 228] |  |
| 689 | O=C(NC1CCCC1)N1CCC(n2ncc3cc(OC(F)(F)F)ccc32)CC1 [Example 229] |  |
